In brackets after ≈: the same amount, converted by molar mass. Where two headings read alike, the source gives them in different places.
Legend:
[1] = Solubility of dronedarone hydrochloride and base form in lipid excipients (Table A); assay type: physicochemical
[2] = In-vitro dissolution test with a jump in pH (simulated gastric pH 4, then simulated intestinal pH 6.5); assay type: physicochemical; conditions: for percentage of active principle released (dissolution curves, in words): pH 4 for 60 min, then pH 6.5 up to 180 min, FIG. 1-7
From the text: In order to reproduce the effect of pH on the active principle and in particular on its dissolution during its passage through the gastrointestinal tract, a gastrointestinal environment was simulated by reproducing the pH of the stomach and then the pH of the intestine with a jump in pH. The dissolution kinetics was investigated using a simple in-vitro dissolution test with a jump in pH.
The principle consists of determining the dissolution of the formulated active principle by studying its dissolution kinetics at 37° C., firstly in simulated gastric medium at pH 4, then in simulated intestinal medium at pH 6.5, in a time interval consistent with the gastrointestinal tract.
Equipment: precision balance (Mettler AE200 or AT261), pH meter (Knick or Schott Geräte or Inolab), thermostated Dissolutest 6 or 7 bowls (Sotax AT6 or AT7), 5 μm filter (PALL Versapore 25 mm) with syringe (Térumo), UV spectrophotometer (Gilford Response II or Perkin Elmer) or HPLC (Merck or Agilent).
Dissolution media: The simulated physiological media representative of the gastrointestinal tract are obtained from simulated gastric and intestinal fluids recommended by the USP, but used without pepsin or pancreatin. • simulated gastric fluid—USP (without pepsin): • 2 g of sodium chloride per 900 ml of distilled water, • pH adjusted to 1.2 with concentrated hydrochloric acid (37%), • Q.S. 1000 ml with distilled water. • simulated intestinal fluid—USP (without pancreatin): • 6.8 g of potassium dihydrogen phosphate per 900 ml of distilled water, • pH adjusted to 7.5 with concentrated sodium hydroxide (10 M), • Q.S. 1000 ml with distilled water.
The simulated gastric medium of pH 4 is thus obtained by mixing the two simulated fluids in various proportions, monitoring with a pH electrode. The dissolution medium of the intestinal type is adjusted to pH 6.5 with a few drops of concentrated soda (10M) to simulate passage of the active principle into the beginning of the intestine, without leading to dilution.
Standard solutions of active principle are prepared in a solvent medium, preferably in the mobile phase or ethanol or methanol, and then analyzed at the characteristic wavelength of the active principle. A calibration straight line showing the concentrations as a function of the optical densities (analysis by UV spectrophotometry) or of the areas under peak (HPLC analysis) is then determined. The equation of the straight line obtained can be used for determining the concentration of dissolved active principle from measurement of the optical density or of the area under peak.
The concentration used corresponds to the dose in 250 ml (i.e. 4 capsules in a 500-ml bowl). The dissolution kinetics is first investigated in simulated gastric medium of pH 4 in the dissolution test in bowls thermostated at 37° C., with paddle stirring at 75 rpm, for 1 hour with sampling at times 5, 15, 30, 45 and 60 minutes, then in intestinal medium with an increase in pH to 6.5 by adding a small volume of concentrated soda (example: 0.400 ml for 500 ml of medium at pH 4), monitoring with a pH electrode. The kinetics is monitored for 3 hours with sampling at times 75, 90, 120 and 180 minutes and each sample is filtered at 5 μm and then analyzed.
Two methods of analysis can be used depending on the sensitivity required and the dosage form under investigation: UV spectrophotometry (for active principle only) or HPLC (for active principle only or formulated).
The concentration at a time t is determined based on the previously established calibration. During analysis by UV spectrophotometry, the whole absorption spectrum is monitored at least at the end of the kinetic study. In addition, the pH of the medium is monitored at the end of the kinetic study. […]

[3] = cited from earlier work
[4] = cited from earlier work; remark: listed apart in the source
[5] = Capmul PG8 (HLB 5), oil or lipid, in Capmul PG8 (HLB 5), RT, read-out: Solubility
[6] = Captex 355, oil or lipid, in Captex 355, RT, read-out: Solubility
[7] = Cremophor RH 40 (HLB 14), 55 °C, oil or lipid, in Cremophor RH 40 (HLB 14), 55° C., read-out: Solubility
[8] = Gelucire 33/01 (HLB 1), 55 °C, oil or lipid, in Gelucire 33/01 (HLB 1), 55° C., read-out: Solubility
[9] = Gelucire 43/01 (HLB 1), 55 °C, oil or lipid, in Gelucire 43/01 (HLB 1), 55° C., read-out: Solubility
[10] = Labrafac PG, oil or lipid, in Labrafac PG, RT, read-out: Solubility
[11] = Labrafil M1944Cs, oil or lipid, in Labrafil M1944Cs, RT, read-out: Solubility
[12] = Labrasol ALF, oil or lipid, in Labrasol ALF, RT, read-out: Solubility
[13] = Lauroglycol 90, oil or lipid, in Lauroglycol 90, RT, read-out: Solubility
[14] = Lipophilic Labrafac, oil or lipid, in Lipophilic Labrafac, RT, read-out: Solubility
[15] = Miglyol 812N, oil or lipid, in Miglyol 812N, RT, read-out: Solubility
[16] = PEG 400, organic solvent or mixture, in PEG 400, RT, read-out: Solubility
[17] = propylene glycol, organic solvent or mixture, in propylene glycol, RT, read-out: Solubility
[18] = soybean oil, oil or lipid, in soybean oil, RT, read-out: Solubility
[19] = surfactant Chrem RH40 (HLB 14), capsules G24 (HCl) / G25 (base)
[20] = surfactant Pluronic L44 (HLB 12), capsules G26 (HCl) / G27 (base), pH 6.5 after jump, 37° C.
[21] = surfactant Polox 188 (HLB 29), capsules G22 (HCl) / G23 (base)
[22] = surfactant Polox 407 (HLB 22), capsules G1 (HCl) / G5 (base)
[23] = surfactant Tween 60 (HLB 15), capsules G28 (HCl) / G29 (base)

`CCCCc1oc2ccc(NS(C)(=O)=O)cc2c1C(=O)c1ccc(OCCCN(CCCC)CCCC)cc1` [Dronedarone Base, 2-n-butyl-3-[4-(3-di-n-butylaminopropoxy)benzoyl]-5-methylsulfonamidobenzofuran] showed a solubility [1, 5] of 517 mg/mL (≈ 929 mM), a solubility [1, 6] of 167 mg/mL (≈ 299 mM) and a solubility [1, 7] of over 313 mg/mL. It also gave a solubility ([1]; Crodamol EO (ethyl oleate), oil or lipid, in Crodamol EO (ethyl oleate), RT, read-out: Solubility) of 154 mg/mL (≈ 276 mM), a solubility [1, 8] of 371 mg/mL (≈ 667 mM) and a solubility [1, 9] of 259 mg/mL (≈ 465 mM). For the same compound, the solubility ([1]; Gelucire 44/14 (HLB 14), 55 °C, oil or lipid, in Gelucire 44/14 (HLB 14), 55° C., read-out: Solubility) was 633 mg/mL (≈ 1140 mM), the solubility [1, 10] was 184 mg/mL (≈ 330 mM) and the solubility [1, 11] was 208 mg/mL (≈ 374 mM). It also gave a solubility [1, 12] of 401 mg/mL (≈ 721 mM), a solubility ([1]; Labrasol, oil or lipid, in Labrasol, RT, read-out: Solubility) of over 400 mg/mL and a solubility [1, 13] of 311 mg/mL (≈ 558 mM). It also gave a solubility [1, 14] of 129 mg/mL (≈ 231 mM), a solubility [1, 15] of 144 mg/mL (≈ 258 mM) and a solubility [1, 16] of 273 mg/mL (≈ 491 mM). For the same compound, the solubility ([1]; ethanol, organic solvent or mixture, in ethanol, RT, read-out: Solubility) was over 500 mg/mL, the solubility ([1]; in Labrafil M1944Cs, RT) was 192.6 mg/mL (≈ 346 mM) and the solubility ([1]; in Miglyol 812N, RT) was 141.6 mg/mL (≈ 254 mM). For the same compound, the solubility ([1]; in PEG 400, RT) was 280.1 mg/mL (≈ 503 mM), the solubility ([1]; in soybean oil, RT) was 87.7 mg/mL (≈ 158 mM) and the solubility ([1]; oleic acid, oil or lipid, in Oleic acid, RT, read-out: Solubility) was over 341 mg/mL. For the same compound, the solubility [1, 17] was 18.2 mg/mL (≈ 32.7 mM), the solubility [1, 18] was 60.7 mg/mL (≈ 109 mM) and the solubility ([1]; sweet almond oil, oil or lipid, in sweet almond oil, RT, read-out: Solubility) was 45.2 mg/mL (≈ 81.2 mM). For the same compound, the “percentage of active principle released (dissolution curves, in words)” value [2] was “equivalent regardless of which nonionic surfactant is used”, the “% of dronedarone at 180 min” value [2, 19] was 85.3% and the “% of dronedarone at 180 min” value [2, 20] was 76.38%. The “% of dronedarone at 180 min” value [2, 21] was 71.32%, the “% of dronedarone at 180 min” value [2, 22] was 72.89% and the “% of dronedarone at 180 min” value [2, 23] was 81.12%. The absolute bioavailability ([3]; taken with food) was “no more than 15%” and the “absorption after oral administration” value ([3]; with a meal) was “at least 70%”.

For `CCCCc1oc2ccc(NS(C)(=O)=O)cc2c1C(=O)c1ccc(OCCCN(CCCC)CCCC)cc1.Cl` [Dronedarone Hydrochloride, 2-n-butyl-3-[4-(3-di-n-butylaminopropoxy)benzoyl]-5-methylsulfonamidobenzofuran hydrochloride], the solubility [1, 5] was 10 mg/mL, the solubility [1, 6] was 0.0353 mg/mL and the solubility [1, 7] was 14.8 mg/mL. It also gave a solubility [1, 8] of 0.0962 mg/mL, a solubility [1, 9] of 0.0445 mg/mL and a solubility [1, 10] of 0.0416 mg/mL. For the same compound, the solubility [1, 11] was 0.504 mg/mL, the solubility [1, 12] was 4.84 mg/mL and the solubility [1, 13] was 2.09 mg/mL. The solubility [1, 14] was 0.0251 mg/mL, the solubility [1, 15] was 0.0409 mg/mL and the solubility [1, 16] was 13.2 mg/mL. For the same compound, the solubility [1, 17] was 15.8 mg/mL, the solubility [1, 18] was 0.0231 mg/mL and the “percentage of active principle released (dissolution curves, in words)” value [2] was “better profiles for an HLB between 15 and 25”. The “% of dronedarone at 180 min” value [2, 19] was 59.01%, the “% of dronedarone at 180 min” value [2, 20] was 49.1% and the “% of dronedarone at 180 min” value [2, 21] was 69.82%. The “% of dronedarone at 180 min” value [2, 22] was 90.49%, the “% of dronedarone at 180 min” value [2, 23] was 58.32% and the “behaviour on dilution to 1/10 with aqueous solution buffered at pH=7” value ([4]; final pH of the medium=6.7) was “is precipitated”. For the same compound, the solubility ([4]; room temperature, pH=7) was “no more than 10 μg/ml”.

From patent US9018250B2, “Pharmaceutical composition and dosage form comprising dronedarone, and preparation method thereof” (Sanofi, priority 2010, dated 2015)
